{"source": "paper PMC6825211", "about": "(Nature Communications, 2019)", "key": {"250 kinases": {"tested_on": "250 kinases", "assay": "Nanosyn panel of 250 biochemical kinase assays", "conditions": "3 µM, of 250 kinases", "description": "inhibition was determined for each assay."}, "MST1": {"biological_target": "T1, MST1 (Rattus norvegicus, UniProt A0A8I6A0F8)", "T1 construct": "endogenous in cells; host or cells: INS-1E (rat beta-cell line)", "T1 sequence (A0A8I6A0F8 1-487)": "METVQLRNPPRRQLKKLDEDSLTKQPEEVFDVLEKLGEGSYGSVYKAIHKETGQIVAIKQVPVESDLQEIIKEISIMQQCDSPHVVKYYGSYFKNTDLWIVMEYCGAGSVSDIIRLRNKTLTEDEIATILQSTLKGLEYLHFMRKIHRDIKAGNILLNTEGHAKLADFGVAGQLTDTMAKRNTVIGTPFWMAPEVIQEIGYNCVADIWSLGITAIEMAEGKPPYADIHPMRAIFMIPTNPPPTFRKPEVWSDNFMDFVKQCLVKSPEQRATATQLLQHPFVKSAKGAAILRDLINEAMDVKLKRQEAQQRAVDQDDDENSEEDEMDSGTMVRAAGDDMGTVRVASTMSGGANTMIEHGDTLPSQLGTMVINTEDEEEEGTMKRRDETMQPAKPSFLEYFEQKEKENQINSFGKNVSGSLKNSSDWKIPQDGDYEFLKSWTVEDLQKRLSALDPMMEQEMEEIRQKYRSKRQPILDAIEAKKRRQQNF", "assay": "CETSA assay", "type": "cell-based", "conditions": "5 μM, 2 h, INS-1E, 55 °C"}, "MLD–STZ C57BL/6J mice": {"tested_on": "MLD–STZ C57BL/6J mice", "assay": "MLD–STZ model: PDX1, NKX6.1, Glut2 immunostaining", "type": "in vivo, mouse", "description": "Representative triple stainings for PDX1 (red, a), Glut2 (red, b), or NKX6.1 (red, c), insulin (green), and DAPI (blue) are shown from vehicle-, STZ-, and STZ/Nera-treated mice (n = 8, 4, 9 & 9 mice/group). Scale bar, 100 μm\nMouse pancreases were dissected and fixed in 4% formaldehyde at 4 °C for 12 h before embedding in paraffin[62]. […] Slides were mounted with Vectashield with 4′6-diamidino-2-phenylindole (DAPI) (Vector Labs). β-cell apoptosis was analyzed by the terminal deoxynucleotidyl transferase-mediated dUTP nick-end labeling (TUNEL) technique according to the manufacturer’s instructions (In Situ Cell Death Detection Kit, TMR red; Roche) and double stained for insulin. Fluorescence was analyzed by using a Nikon MEA53200 (Nikon GmbH, Dusseldorf, Germany) microscope, and images were acquired by using NIS-Elements software (Nikon)."}, "[1]": {"assay": "MLD–STZ model: body weight", "type": "in vivo, mouse", "conditions": "5 mg/kg i.p. daily, 35 days"}, "[2]": {"tested_on": "obese diabetic Lepr db/db mice", "assay": "db/db model: random fed blood glucose", "type": "in vivo, mouse", "conditions": "for glycemia: dbdb mice", "excerpt": "Data are representative of six mice per group (n = 6 for (a–f)). g–j Mice were killed at day 31. g β-cell mass (given as percentage of the whole pancreatic section from ten sections spanning the width of the pancreas; n = 5 mice/group) and quantitative analyses from triple stainings for (h) TUNEL, (i) Ki67, (j) pHH3, and (k) nuclear PDX1 expression, insulin, and DAPI expressed as percentage of TUNEL-, Ki67-, pHH3-, or nuclear PDX1-positive β-cells ± SEM. An average number of 13667 (h), 5937 (i), 7108 (j), or 4330 (k) β-cells were counted from n = 3–5 (h, i, k) or n = 5–6 (j) mice/group."}, "[3]": {"tested_on": "obese diabetic Lepr db/db mice", "assay": "db/db model: ratio of secreted insulin and glucose at fed state", "type": "in vivo, mouse", "conditions": "dbdb Nera"}, "[4]": {"tested_on": "isolated islets from db/db mice", "assay": "Ex vivo pMST1, BIM (western blot) and nuclear PDX1 in isolated db/db islets", "type": "cell-based, mouse", "conditions": "10 μM, 24 h ex vivo", "excerpt": "mouse islets ex vivo. Representative double-stainings for PDX1 (green) and insulin (red) shown from isolated islets from 10-week old heterozygous db/+ mice or db/db littermates […]\nRepresentative microscopical images are shown. White arrow point to PDX1 deficient nuclei in db/db mouse islets. Related to Figure"}, "MST family members": {"tested_on": "MST family members", "set-up": "method as in PMID 22037378", "conditions": "cited from earlier work"}, "INS-1E cells": {"tested_on": "INS-1E cells", "assay": "Cytotoxicity CellTiter-Glo assay", "conditions": "all tested concentrations, 24 h"}, "AMP-A1B1G1": {"biological_target": "AMP-A1B1G1 (Homo sapiens, UniProt Q13131)", "assay": "Nanosyn kinase profiling, mobility shift assay", "conditions": "read-out: % inhibition by neratinib"}, "AURORA-A": {"biological_target": "AURORA-A (Homo sapiens, UniProt O14965)", "sequence (O14965 whole entry)": "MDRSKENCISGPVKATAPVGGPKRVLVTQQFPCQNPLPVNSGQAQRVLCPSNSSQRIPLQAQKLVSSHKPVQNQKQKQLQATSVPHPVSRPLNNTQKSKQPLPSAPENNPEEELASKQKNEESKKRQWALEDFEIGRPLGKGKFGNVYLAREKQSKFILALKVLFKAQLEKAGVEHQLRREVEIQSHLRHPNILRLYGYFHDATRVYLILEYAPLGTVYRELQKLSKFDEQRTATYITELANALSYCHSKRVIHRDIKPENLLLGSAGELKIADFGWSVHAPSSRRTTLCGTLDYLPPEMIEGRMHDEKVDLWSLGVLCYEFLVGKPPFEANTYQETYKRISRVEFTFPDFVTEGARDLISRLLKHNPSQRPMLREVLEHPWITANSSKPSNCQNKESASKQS", "assay": "Nanosyn kinase profiling, mobility shift assay", "conditions": "read-out: % inhibition by neratinib"}, "CAMK4": {"biological_target": "CAMK4 (Homo sapiens, UniProt Q16566)", "sequence (Q16566 whole entry)": "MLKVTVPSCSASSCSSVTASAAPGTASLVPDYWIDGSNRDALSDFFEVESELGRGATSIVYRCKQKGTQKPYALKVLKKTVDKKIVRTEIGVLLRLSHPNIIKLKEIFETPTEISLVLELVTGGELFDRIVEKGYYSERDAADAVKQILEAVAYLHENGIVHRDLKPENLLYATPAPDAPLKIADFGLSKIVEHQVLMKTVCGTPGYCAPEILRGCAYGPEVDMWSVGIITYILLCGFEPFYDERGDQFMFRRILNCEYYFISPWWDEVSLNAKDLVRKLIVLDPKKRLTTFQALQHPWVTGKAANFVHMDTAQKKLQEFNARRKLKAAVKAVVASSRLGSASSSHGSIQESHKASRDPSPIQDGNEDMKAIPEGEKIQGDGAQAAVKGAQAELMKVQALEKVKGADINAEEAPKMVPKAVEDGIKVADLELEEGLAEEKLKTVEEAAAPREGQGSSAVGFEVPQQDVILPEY", "assay": "Nanosyn kinase profiling, mobility shift assay", "conditions": "read-out: % inhibition by neratinib"}, "CDK2": {"biological_target": "CDK2 (Homo sapiens, UniProt P24941)", "assay": "Nanosyn kinase profiling, mobility shift assay", "conditions": "read-out: % inhibition by neratinib"}, "DAPK1": {"biological_target": "DAPK1 (Homo sapiens, UniProt P53355)", "assay": "Nanosyn kinase profiling, mobility shift assay", "conditions": "read-out: % inhibition by neratinib"}, "IGF1R": {"biological_target": "IGF1R (Homo sapiens, UniProt P08069)", "sequence (P08069 31-1367)": "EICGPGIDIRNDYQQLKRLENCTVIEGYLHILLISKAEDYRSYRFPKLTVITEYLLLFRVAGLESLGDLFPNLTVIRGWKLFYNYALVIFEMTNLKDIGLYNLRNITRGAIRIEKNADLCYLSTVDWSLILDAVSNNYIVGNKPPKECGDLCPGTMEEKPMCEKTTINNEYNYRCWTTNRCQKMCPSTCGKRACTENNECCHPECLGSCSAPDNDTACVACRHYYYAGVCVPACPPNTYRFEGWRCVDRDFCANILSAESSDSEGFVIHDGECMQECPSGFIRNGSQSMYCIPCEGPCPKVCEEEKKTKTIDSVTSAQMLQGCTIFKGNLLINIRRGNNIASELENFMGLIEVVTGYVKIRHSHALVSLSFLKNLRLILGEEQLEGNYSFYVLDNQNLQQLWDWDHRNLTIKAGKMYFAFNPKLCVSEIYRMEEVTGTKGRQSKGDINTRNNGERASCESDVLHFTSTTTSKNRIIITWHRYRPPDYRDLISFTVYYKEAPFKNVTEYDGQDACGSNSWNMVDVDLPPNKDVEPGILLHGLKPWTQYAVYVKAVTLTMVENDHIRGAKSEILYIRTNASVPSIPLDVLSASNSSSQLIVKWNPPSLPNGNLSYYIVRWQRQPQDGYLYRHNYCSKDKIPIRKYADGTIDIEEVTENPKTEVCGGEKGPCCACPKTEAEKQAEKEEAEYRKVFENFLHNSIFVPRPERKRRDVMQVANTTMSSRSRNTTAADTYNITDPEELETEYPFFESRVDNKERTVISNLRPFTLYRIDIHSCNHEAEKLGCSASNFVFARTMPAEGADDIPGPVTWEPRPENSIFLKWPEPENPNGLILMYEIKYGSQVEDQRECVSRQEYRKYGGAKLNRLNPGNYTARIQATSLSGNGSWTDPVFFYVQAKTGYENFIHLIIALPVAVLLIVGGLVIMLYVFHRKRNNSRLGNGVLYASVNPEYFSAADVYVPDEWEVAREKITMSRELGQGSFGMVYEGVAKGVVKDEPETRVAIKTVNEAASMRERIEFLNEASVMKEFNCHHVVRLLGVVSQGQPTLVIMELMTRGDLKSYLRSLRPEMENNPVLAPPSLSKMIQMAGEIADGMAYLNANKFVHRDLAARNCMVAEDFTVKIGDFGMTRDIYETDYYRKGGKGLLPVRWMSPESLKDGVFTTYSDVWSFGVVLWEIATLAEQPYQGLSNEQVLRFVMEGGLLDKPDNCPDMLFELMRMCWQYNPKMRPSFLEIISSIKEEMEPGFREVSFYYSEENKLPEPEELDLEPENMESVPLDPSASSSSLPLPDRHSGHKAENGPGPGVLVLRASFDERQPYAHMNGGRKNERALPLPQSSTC", "assay": "Nanosyn kinase profiling, mobility shift assay", "conditions": "read-out: % inhibition by neratinib"}, "IKK-BETA": {"biological_target": "IKK-BETA (Homo sapiens, UniProt O14920)", "sequence (O14920 whole entry)": "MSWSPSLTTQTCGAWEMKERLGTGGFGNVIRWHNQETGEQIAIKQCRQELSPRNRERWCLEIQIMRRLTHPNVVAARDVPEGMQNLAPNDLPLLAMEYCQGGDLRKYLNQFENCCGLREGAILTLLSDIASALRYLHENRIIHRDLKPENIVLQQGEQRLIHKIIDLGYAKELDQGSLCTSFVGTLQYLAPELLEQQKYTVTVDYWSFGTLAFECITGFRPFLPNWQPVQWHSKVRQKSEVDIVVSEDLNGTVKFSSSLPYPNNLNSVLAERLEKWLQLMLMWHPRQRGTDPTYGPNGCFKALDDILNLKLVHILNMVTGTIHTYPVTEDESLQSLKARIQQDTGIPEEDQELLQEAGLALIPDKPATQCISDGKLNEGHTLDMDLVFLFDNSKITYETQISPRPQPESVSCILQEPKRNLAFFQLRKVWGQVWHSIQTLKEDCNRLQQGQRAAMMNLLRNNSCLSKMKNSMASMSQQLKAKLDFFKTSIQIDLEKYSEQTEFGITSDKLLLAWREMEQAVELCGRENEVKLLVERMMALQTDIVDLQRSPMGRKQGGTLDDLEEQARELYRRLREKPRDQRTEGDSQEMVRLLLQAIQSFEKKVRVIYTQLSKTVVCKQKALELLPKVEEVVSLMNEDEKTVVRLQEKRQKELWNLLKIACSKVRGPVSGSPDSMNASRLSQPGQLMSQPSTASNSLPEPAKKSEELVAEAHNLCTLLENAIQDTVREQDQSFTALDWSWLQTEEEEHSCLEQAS", "assay": "Nanosyn kinase profiling, mobility shift assay", "conditions": "read-out: % inhibition by neratinib"}, "IRAK4": {"biological_target": "IRAK4 (Homo sapiens, UniProt Q9NWZ3)", "sequence (Q9NWZ3 whole entry)": "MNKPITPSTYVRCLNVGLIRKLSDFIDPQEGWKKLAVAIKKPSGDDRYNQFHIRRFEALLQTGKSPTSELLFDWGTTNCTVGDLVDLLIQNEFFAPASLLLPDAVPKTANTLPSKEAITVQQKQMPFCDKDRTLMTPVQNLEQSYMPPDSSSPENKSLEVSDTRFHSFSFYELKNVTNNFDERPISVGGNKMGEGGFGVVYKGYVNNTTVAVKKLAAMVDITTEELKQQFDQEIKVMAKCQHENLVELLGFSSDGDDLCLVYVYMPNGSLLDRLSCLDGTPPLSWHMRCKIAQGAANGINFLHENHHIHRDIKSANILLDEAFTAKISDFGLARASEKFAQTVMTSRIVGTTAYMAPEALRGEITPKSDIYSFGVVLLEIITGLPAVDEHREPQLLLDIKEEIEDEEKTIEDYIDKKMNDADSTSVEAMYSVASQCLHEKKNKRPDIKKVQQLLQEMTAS", "assay": "Nanosyn kinase profiling, mobility shift assay", "conditions": "read-out: % inhibition by neratinib"}, "PRKACA": {"biological_target": "PRKACA (Homo sapiens, UniProt P17612)", "assay": "Nanosyn kinase profiling, mobility shift assay", "conditions": "read-out: % inhibition by neratinib"}, "human islets": {"tested_on": "human islets", "assay": "Western blot of pMST1 and caspase-3 cleavage under diabetogenic conditions", "conditions": "72 h, six donors"}}, "note": "“And” between values parts separate entries of the source, which are not always exact repeats. Identical values can stand only once."}
{"smiles": "CCOc1cc2ncc(C#N)c(Nc3ccc(OCc4ccccn4)c(Cl)c3)c2cc1NC(=O)/C=C/CN(C)C", "note": "[neratinib]", "values": [{"measurement": "number of kinases with 50% of inhibition", "setting": "250 kinases", "value": 59}, {"measurement": "thermal stabilization of MST1 in intact cells", "setting": "MST1", "value": "MST1 stabilization at 55 °C"}, {"measurement": "β-cell Glut2 expression", "setting": "MLD–STZ C57BL/6J mice; MLD–STZ mice", "value": "restored β-cell Glut2 expression"}, {"measurement": "loss of nuclear PDX1- and NKX6.1-positive cells and islet architecture in MLD–STZ mice", "setting": "MLD–STZ C57BL/6J mice; mouse, in vivo", "value": "markedly attenuated"}, {"measurement": "body weight", "setting": "[1]", "value": "no influence on body weight"}, {"measurement": "blood glucose, start to after 30 days of therapy", "setting": "[2]; db/db neratinib group, no significant increase", "value": "312 to 384", "unit": "mg/dL"}, {"measurement": "blood glucose levels after 4 weeks", "setting": "[2]; db/db, 5 mg/kg i.p. daily", "value": "did not significantly increase"}, {"measurement": "glycemia", "setting": "[2]; 0 days after NERA injection, MEAN", "value": 311.667, "unit": "mg/dL"}, {"measurement": "glycemia", "setting": "[2]; 0 days after NERA injection, individual mice", "value": "219 mg/dL and 243 mg/dL and 260 mg/dL and 443 mg/dL and 266 mg/dL and 439 mg/dL"}, {"measurement": "glycemia", "setting": "[2]; 31 days after NERA injection, individual mice", "value": "405 mg/dL and 313 mg/dL and 425 mg/dL and 317 mg/dL and 380 mg/dL and 462 mg/dL"}, {"measurement": "ins/gluc", "setting": "[3]; Mean", "value": 13.8584}, {"measurement": "ins/gluc", "setting": "[3]; fed state, individual mice", "value": "16.7538 and 11.2869 and 14.8626 and 15.5775 and 11.515 and 13.1546"}, {"measurement": "MST1 activation and proapoptotic BIM in db/db islets", "setting": "[4]", "value": "reversed"}, {"measurement": "nuclear PDX1 expression in db/db islets", "setting": "[4]", "value": "enhanced nuclear PDX1 expression"}, {"measurement": "activity on MST family members", "setting": "MST family members", "value": "potent activity"}, {"measurement": "basal cell viability (steady-state ATP)", "setting": "INS-1E cells", "value": "no evidence of interference on basal cell viability"}, {"measurement": "inhibition at 10 µM", "setting": "AMP-A1B1G1", "value": 11, "unit": "%"}, {"measurement": "inhibition at 10 µM", "setting": "AURORA-A", "value": 28, "unit": "%"}, {"measurement": "inhibition at 10 µM", "setting": "CAMK4", "value": 19, "unit": "%"}, {"measurement": "inhibition at 10 µM", "setting": "CDK2", "value": 9, "unit": "%"}, {"measurement": "inhibition at 10 µM", "setting": "DAPK1", "value": 4, "unit": "%"}, {"measurement": "inhibition at 10 µM", "setting": "IGF1R", "value": 37, "unit": "%"}, {"measurement": "inhibition at 10 µM", "setting": "IKK-BETA", "value": -7, "unit": "%"}, {"measurement": "inhibition at 10 µM", "setting": "IRAK4", "value": 17, "unit": "%"}, {"measurement": "inhibition at 10 µM", "setting": "PRKACA", "value": 3, "unit": "%"}, {"measurement": "cytokine- and high glucose/palmitate-induced MST1 activation and caspase-3 activation", "setting": "human islets", "value": "potently and significantly inhibited"}]}
